# From patent US20070176143A1, “Stable ill-defined cubic nanosized particles in a ternary aqueous phase” (YISSYM RESEARCH DEVELOPMENT COMPANY OF THE HEBREW …, priority 2003, published 2007)
# Description: Well ordered liquid crystals have many applications all utilizing their relative structured character and the very large surface area they posses.
# (§1) 2 gr of GMO were melted by heating to about 50° C. In a separate vessel, 2 gr of GMO and lycopene (0.0085 gr) were placed. The vessel was closed and its contents were mixed well with vortex until all the lycopene dissolved. 0.5 gr ethanol was added and the combination further mixed. The vessel was placed in a bath at a temperature of 45° C. 2.5 gr water were added.
# 2 gr of GMO were melted by heating to about 50° C. In a separate vessel, 2 gr of GMO and 0.5 gr of ethanol were placed. The vessel was closed and its contents were mixed well with vortex. The vessel was placed in a bath at 45° C.
# as §1, with “carbamazepine (0.044” for “lycopene (0.0085”, “carbamazepine” for “lycopene”
# 2 gr of GMO were melted by heating to about 50° C. In a separate vessel, 2 gr of GMO and phytosterol (0.2 gr) were placed. […] 0.5 gr ethanol was added and the combination further mixed. The vessel was placed in a bath at a temperature of 45° C. 2.5 gr water were added.
row,Compound,solubilization in an aqueous phase comprising the QL semi-ordered phase
1,CC(C)=CCC/C(C)=C/C=C/C(C)=C/C=C/C(C)=C/C=C/C=C(C)/C=C/C=C(C)/C=C/C=C(\C)CCC=C(C)C [Lycopene],successfully solubilized
2,"NC(=O)N1c2ccccc2C=Cc2ccccc21 [carbamazapine, reference compound]",successfully solubilized
3,CC1=C[C@H](O)CC(C)(C)[C@H]1/C=C/C(C)=C/C=C/C(C)=C/C=C/C=C(C)/C=C/C=C(C)/C=C/C1=C(C)C[C@@H](O)CC1(C)C [leutin],successfully solubilized
4,CC1=C(/C=C/C(C)=C/C=C/C(C)=C/C=C/C=C(C)/C=C/C=C(C)/C=C/C2=C(C)CCCC2(C)C)C(C)(C)CCC1 [β-carotene],successfully solubilized
5,phytosterol,all the phytosterol dissolved
